{
  "source": "patent US20260216324A1",
  "about": "“QS-21 COMPOSITIONS AND PROCESSES FOR PRODUCING THE SAME AND USES THEREFOR” (priority 2022, published 2026)",
  "origin": "cited, not measured here",
  "key": {"[1]": {"details": "U.S. Pat. No. 5,583,112 (Example 11), isomers derived from bark"}, "[2]": {"details": "U.S. Pat. No. 5,583,112 (Example 11), isomers derived from bark", "remark": "listed apart in the source"}, "[3]": {"details": "prior art; saponins purified from Quillaja saponaria bark extract"}},
  "data": [
    {"compound": "CC[C@H](C)[C@H](C[C@H](O)CC(=O)O[C@@H]1[C@H](O)[C@@H](O[C@@H]2O[C@@H](C)[C@H](O[C@@H]3OC[C@@H](O)[C@H](O[C@@H]4OC[C@](O)(CO)[C@H]4O)[C@H]3O)[C@@H](O)[C@H]2O)[C@H](OC(=O)[C@]23CCC(C)(C)C[C@H]2C2=CC[C@@H]4[C@@]5(C)CC[C@H](O[C@@H]6O[C@H](C(=O)O)[C@@H](O)[C@H](O[C@@H]7OC[C@@H](O)[C@H](O)[C@H]7O)[C@H]6O[C@@H]6O[C@H](CO)[C@H](O)[C@H](O)[C@H]6O)[C@@](C)(C=O)[C@@H]5CC[C@@]4(C)[C@]2(C)C[C@H]3O)O[C@@H]1C)OC(=O)C[C@@H](O)C[C@H](O[C@@H]1O[C@@H](CO)[C@H](O)[C@H]1O)[C@@H](C)CC", "note": "(single isomer, unassigned) [purified apiose isomer]", "values": [
      {"measurement": "adjuvanticity compared to standard 65:35 QS-21", "setting": "[1]", "result": "comparable in both adjuvanticity and toxicity to the standard 65:35 (apiose:xylose ratio) QS-21"},
      {"measurement": "toxicity compared to standard 65:35 QS-21", "setting": "[2]", "result": "comparable in both adjuvanticity and toxicity to the standard 65:35 (apiose:xylose ratio) QS-21"}
    ]},
    {"compound": "CC[C@H](C)[C@H](C[C@H](O)CC(=O)O[C@@H]1[C@H](O)[C@@H](O[C@@H]2O[C@@H](C)[C@H](O[C@@H]3OC[C@@H](O)[C@H](O[C@@H]4OC[C@@H](O)[C@H](O)[C@H]4O)[C@H]3O)[C@@H](O)[C@H]2O)[C@H](OC(=O)[C@]23CCC(C)(C)C[C@H]2C2=CC[C@@H]4[C@@]5(C)CC[C@H](O[C@@H]6O[C@H](C(=O)O)[C@@H](O)[C@H](O[C@@H]7OC[C@@H](O)[C@H](O)[C@H]7O)[C@H]6O[C@@H]6O[C@H](CO)[C@H](O)[C@H](O)[C@H]6O)[C@@](C)(C=O)[C@@H]5CC[C@@]4(C)[C@]2(C)C[C@H]3O)O[C@@H]1C)OC(=O)C[C@@H](O)C[C@H](O[C@@H]1O[C@@H](CO)[C@H](O)[C@H]1O)[C@@H](C)CC", "note": "(single isomer, unassigned) [purified xylose isomer]", "values": [
      {"measurement": "adjuvanticity compared to standard 65:35 QS-21", "setting": "[1]", "result": "comparable in both adjuvanticity and toxicity to the standard 65:35 (apiose:xylose ratio) QS-21"},
      {"measurement": "toxicity compared to standard 65:35 QS-21", "setting": "[2]", "result": "comparable in both adjuvanticity and toxicity to the standard 65:35 (apiose:xylose ratio) QS-21"}
    ]},
    {"compound": "QS-17", "values": [
      {"measurement": "adjuvant activity", "setting": "[3]", "result": "adjuvant active"}
    ]},
    {"compound": "QS-18", "values": [
      {"measurement": "adjuvant activity", "setting": "[3]", "result": "adjuvant active"}
    ]}
  ]
}
